Measurements taken from ChEMBL document CHEMBL1201862, “PubChem BioAssay data set” (2004).
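Values below derive from 48-hour exposures of cells grown in 96-well plates, with endpoints linearly interpolated between the two concentrations bracketing the appropriate inhibition level. Here, GI50 denotes the concentration required for 50% inhibition of growth.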 Calls of active or inactive are those of the source. Rule as the data show it: active = GI50 up to about 1.1 µM and inactive = higher.

What was measured:
Assay in all cases: growth of human tumour cells (NCI), 48 h
[1] = system: OVCAR-5
[2] = system: KM12
[3] = system: Malme-3M
[4] = system: COLO 205
[5] = system: SN12C
[6] = system: OVCAR-3
[7] = system: NCI-H522
[8] = system: MOLT-4
[9] = system: M14
[10] = system: A498
[11] = system: K562
[12] = system: XF498
[13] = system: HCT-15
[14] = system: RPMI-8226
[15] = system: OVCAR-8
[16] = system: HOP-18
[17] = system: HOP-62
[18] = system: HCT-116
[19] = system: RXF 631
[20] = system: SK-MEL-2
[21] = system: DLD-1
[22] = system: SF-268
[23] = system: RXF 393
[24] = system: SF-539
[25] = system: NCI-H23
[26] = system: CAKI-1
[27] = system: U-251
[28] = system: CCRF-CEM
[29] = system: SF-295
[30] = system: LOX IMVI
[31] = system: DMS-273
[32] = system: SW-620
[33] = system: HCC 2998
[34] = system: IGROV-1
[35] = system: KM-20L2
[36] = system: UACC-62
[37] = system: HT-29
[38] = system: HOP-92
[39] = system: SK-OV-3
[40] = system: LXFL 529
[41] = system: SNB-19
[42] = system: SK-MEL-28
[43] = system: ACHN
[44] = system: UO-31
[45] = system: A549
[46] = system: DMS-114
[47] = system: UACC-257
[48] = system: EKVX
[49] = system: 786-0
[50] = system: SK-MEL-5
[51] = system: NCI-H460
[52] = system: SNB-75
[53] = system: TK-10
[54] = system: OVCAR-4
[55] = system: SNB-78
[56] = system: M19-MEL
[57] = system: NCI-H226
[58] = system: SR

Measured: GI50

O=C(N/C(=C\c1ccc(/C=C(\NC(=O)c2ccccc2)c2nc3c(O)nc(S)nc3[nH]2)cc1)c1nc2c(O)nc(S)nc2[nH]1)c1ccccc1
inactive: [1] > 100 µM | [2] > 100 µM | [3] > 100 µM | [4] > 100 µM | [5] > 100 µM | [6] > 100 µM | [7] 14.6 µM | [8] 43 µM | [9] > 100 µM | [10] 40.6 µM | [11] 30.3 µM | [12] > 100 µM | [14] 29.4 µM | [15] 74.6 µM | [16] > 100 µM | [17] > 100 µM | [18] 44.8 µM | [19] 62.4 µM | [20] 8.71 µM | [21] 64.9 µM | [22] 57.9 µM | [23] 38.6 µM | [24] 61.9 µM | [25] 55.7 µM | [26] > 100 µM | [27] > 100 µM | [28] 26.2 µM | [29] > 100 µM | [30] 38 µM | [31] > 100 µM | [32] 46.6 µM | [33] > 100 µM | [34] > 100 µM | [35] > 100 µM | [36] 34.3 µM | [37] 75 µM | [38] > 100 µM | [39] > 100 µM | [40] 35.9 µM | [41] > 100 µM | [42] 29.3 µM | [43] 95.7 µM | [44] > 100 µM | [45] > 100 µM | [46] 34.3 µM | [47] > 100 µM | [48] > 100 µM | [49] > 100 µM | [50] 64.4 µM | [51] > 100 µM | [52] 26.4 µM | [53] > 100 µM | [54] 25.9 µM | [55] > 100 µM
> 100 µM: [13]

CCOC(=O)[C@H]1Nc2ccc(Cl)cc2[C@H]2c3ccccc3O[C@H]21
inactive: [1] > 100 µM | [2] 93.5 µM | [4] > 100 µM | [5] > 100 µM | [6] 80.4 µM | [7] > 100 µM | [8] > 100 µM | [9] 41.2 µM | [11] 56.5 µM | [12] > 100 µM | [56] > 100 µM | [14] 45.5 µM | [57] > 100 µM | [15] > 100 µM | [16] > 100 µM | [17] > 100 µM | [18] > 100 µM | [19] > 100 µM | [20] > 100 µM | [21] 63 µM | [22] > 100 µM | [23] > 100 µM | [24] > 100 µM | [25] > 10 µM | [26] > 100 µM | [27] > 100 µM | [29] 72.1 µM | [30] > 100 µM | [31] 30.1 µM | [32] > 100 µM | [33] > 100 µM | [34] > 100 µM | [35] > 100 µM | [36] 41.8 µM | [37] 99.3 µM | [40] 32.1 µM | [41] > 100 µM | [42] 35.2 µM | [43] > 100 µM | [44] > 100 µM | [45] 79.4 µM | [46] > 100 µM | [47] 36.1 µM | [58] 94.8 µM | [48] > 100 µM | [49] > 100 µM | [50] 64.7 µM | [51] > 100 µM | [52] 47.4 µM | [53] 39.8 µM | [54] 54.1 µM | [55] > 100 µM
16.4 µM: [13]
